Assays:
Type in all cases: cell-based
[1] = tested on: NIH3T3 cells; test: Destabilization mutant screening of human CA2 linked to GFP, ligand response by FACS (Valdecoxib, Celecoxib, Acetazolamide); settings: for stabilization with varying doses of Valdecoxib or Celecoxib: NIH3T3 cells, FACS
Method: To identify destabilizing mutations of human CA2 that are stabilized upon ligand binding to CA2, two rounds of mutant screening were performed, using a lentivirus CA2 mutant library provided by Genscript (China). These methods were used to generate a library of mutant polypeptides using mutagenesis primers and error prone PCR. Lentiviral vectors expressing the template, wild-type human CA2 operably linked to GFP(OT-001986) was also provided by Genscript along with the CA2 mutant library. The library was packaged into lentivirus, transduced into NIH3T3 cells at a multiplicity of infection (MOI) of approximately 0.3 and select stable cell pools were derived by selecting with selection marker puromycin.
To identify cell pools containing destabilizing mutants of CA2 that are stabilizing when CA2 is bound to its corresponding ligand, cells were sorted using FACS. In the initial round, the bottom 15% of population that was GFP negative in the absence of ligand was selected. Cells were expanded and then treated with 10 μM Celecoxib for 24 hours and harvested for cell sorting. The top 11% GFP positive cells which were also responsive to ligand treatment compared to untreated were collected. Celecoxib was removed from the cultures and replaced with DMSO. […] Genomic DNA was isolated and amplified CA2 mutants were reintroduced to the lentiviral vectors where CA2 was operably linked to GFP. The constructs were transduced into NIH3T3 cells with lentivirus vectors for each clone. The cells were treated with 10 μM Valdecoxib or 10 μM Celecoxib for 24 hours and analyzed by FACS. […] In Table 25, the Construct ID (OT-XXXXXX) refers to the construct which includes the referenced CA2 mutant and the Library ID (LibCXXXXXX) refers to the CA2 mutant itself.
The response of NIH3T3 cells to varying doses of Valdecoxib or Celecoxib for 24 hours was measured and analyzed by FACS.
Clones treated with different ligands were compared to examine the behavior of each mutant with the ligands.

[2] = tested on: NIH3T3 cells; test: Immunoblotting of cell lysates for GFP after ligand treatment; settings: 24 hours; for GFP protein expression by immunoblot, Celecoxib or Valdecoxib: NIH3T3 cells, 1, 3, 10 or 30 μM Celecoxib or Valdecoxib
Method: The protein expression in the presence of ligand was measured by immunoblotting the cell lysates for GFP.
The protein expression in the presence of ligand was measured by immunoblotting cell lysates for GFP.

[3] = tested on: NIH3T3 cells; test: Destabilization mutant screening of human CA2 linked to GFP, ligand response by FACS (Valdecoxib, Celecoxib, Acetazolamide)
[4] = NIH3T3, 10 μM Celecoxib vs DMSO
[5] = NIH3T3, 10 μM Valdecoxib vs DMSO
[6] = NIH3T3, Acetazolamide 0.03 μM, 24 hours
[7] = NIH3T3, Acetazolamide 0.1 μM vs DMSO
[8] = NIH3T3, Acetazolamide 0.1 μM, 24 hours
[9] = NIH3T3, Acetazolamide 0.3 μM vs DMSO
[10] = NIH3T3, Acetazolamide 0.3 μM, 24 hours
[11] = NIH3T3, Acetazolamide 1 μM vs DMSO
[12] = NIH3T3, Acetazolamide 1 μM, 24 hours
[13] = NIH3T3, Acetazolamide 3 μM vs DMSO
[14] = NIH3T3, Acetazolamide 3 μM, 24 hours
[15] = NIH3T3, Acetazolamide 10 μM vs DMSO
[16] = NIH3T3, Acetazolamide 10 μM, 24 hours
[17] = NIH3T3, Acetazolamide 30 μM vs DMSO
[18] = NIH3T3, Acetazolamide 30 μM, 24 hours
[19] = NIH3T3, Celecoxib 0 μM, 24 hours
[20] = NIH3T3, Celecoxib 0.03 μM, 24 hours
[21] = NIH3T3, Celecoxib 0.1 μM, 24 hours
[22] = NIH3T3, Celecoxib 0.3 μM, 24 hours
[23] = NIH3T3, Celecoxib 1 μM, 24 hours
[24] = NIH3T3, Celecoxib 3 μM, 24 hours
[25] = NIH3T3, Celecoxib 10 μM, 24 hours
[26] = NIH3T3, Celecoxib 30 μM, 24 hours
[27] = NIH3T3, DMSO, 24 hours (Acetazolamide experiment)
[28] = NIH3T3, Valdecoxib 0 μM, 24 hours
[29] = NIH3T3, Valdecoxib 0.03 μM, 24 hours
[30] = NIH3T3, Valdecoxib 0.1 μM, 24 hours
[31] = NIH3T3, Valdecoxib 0.3 μM, 24 hours
[32] = NIH3T3, Valdecoxib 1 μM, 24 hours
[33] = NIH3T3, Valdecoxib 3 μM, 24 hours
[34] = NIH3T3, Valdecoxib 10 μM, 24 hours
[35] = NIH3T3, Valdecoxib 30 μM, 24 hours
[36] = NIH3T3, Acetazolamide 0.03 μM vs DMSO
[37] = NIH3T3, DMSO (reference), Acetazolamide experiment

CA2 (aa 2-260 of WT, L197P) [LibC000186]
Median PE ([1]; NIH3T3, 10 μM Celecoxib): 8156
SR (stabilization ratio) [1, 4]: 10
Median PE ([1]; NIH3T3, 10 μM Valdecoxib): 6570
SR (stabilization ratio) [1, 5]: 8.05
Median FITC / Median PE [1, 6]: 872
Fold change [1, 7]: 1.18
Median FITC / Median PE [1, 8]: 867
Fold change [1, 9]: 1.23
Median FITC / Median PE [1, 10]: 903
Fold change [1, 11]: 1.28
Median FITC / Median PE [1, 12]: 936
Fold change [1, 13]: 1.28
Median FITC / Median PE [1, 14]: 943
MFI, comparative analysis ([1]; NIH3T3, Acetazolamide 10 μM): 1189
Fold change [1, 15]: 1.62
Median FITC / Median PE [1, 16]: 1189
MFI, comparative analysis ([1]; NIH3T3, Acetazolamide 30 μM): 1827
Fold change [1, 17]: 2.49
Median FITC / Median PE [1, 18]: 1827
Med (median fluorescence intensity) [1, 19]: 934
SR (stabilization ratio) [1, 19]: 1
Med (median fluorescence intensity) [1, 20]: 1177
SR (stabilization ratio) [1, 20]: 1.26
Med (median fluorescence intensity) [1, 21]: 1290
SR (stabilization ratio) [1, 21]: 1.38
Med (median fluorescence intensity) [1, 22]: 1470
SR (stabilization ratio) [1, 22]: 1.57
Med (median fluorescence intensity) [1, 23]: 2065
SR (stabilization ratio) [1, 23]: 2.21
Med (median fluorescence intensity) [1, 24]: 4171
SR (stabilization ratio) [1, 24]: 4.47
Med (median fluorescence intensity) [1, 25]: 8202
SR (stabilization ratio) [1, 25]: 8.78
Med (median fluorescence intensity) [1, 26]: 10200
SR (stabilization ratio) [1, 26]: 10.92
MFI, comparative analysis, normalized to parental day 1 ([1]; NIH3T3, Celecoxib μM (concentration not given)): 7312.627
MFI, comparative analysis ([1]; NIH3T3, DMSO): 734
Median PE ([1]; NIH3T3, DMSO): 816
SR (stabilization ratio) ([1]; NIH3T3, DMSO (reference)): 1
Median FITC / Median PE [1, 27]: 734
Med (median fluorescence intensity) [1, 28]: 934
SR (stabilization ratio) [1, 28]: 1
Med (median fluorescence intensity) [1, 29]: 1223
SR (stabilization ratio) [1, 29]: 1.31
Med (median fluorescence intensity) [1, 30]: 1217
SR (stabilization ratio) [1, 30]: 1.3
Med (median fluorescence intensity) [1, 31]: 1363
SR (stabilization ratio) [1, 31]: 1.46
Med (median fluorescence intensity) [1, 32]: 1711
SR (stabilization ratio) [1, 32]: 1.83
Med (median fluorescence intensity) [1, 33]: 3357
SR (stabilization ratio) [1, 33]: 3.59
Med (median fluorescence intensity) [1, 34]: 7890
SR (stabilization ratio) [1, 34]: 8.45
Med (median fluorescence intensity) [1, 35]: 11800
SR (stabilization ratio) [1, 35]: 12.63
MFI, comparative analysis, normalized to parental day 1 ([1]; NIH3T3, Valdecoxib μM (concentration not given)): 7034.458
stabilization with varying doses of Valdecoxib or Celecoxib ([1]; 24 hours): dose dependent stabilization
GFP protein expression by immunoblot, Acetazolamide ([2]; NIH3T3 cells, 0.3, 1, 3, 10 or 30 μM Acetazolamide): stabilization of GFP with increasing ligand doses
GFP protein expression by immunoblot, Celecoxib or Valdecoxib [2]: stabilization of GFP with increasing ligand doses
Fold change [3, 36]: 1.19
Fold change [3, 37]: 1

CA2 (aa 2-260 of WT, R27L, T87I, H122Y, N252D) [LibC000226]
Median PE ([1]; NIH3T3, 10 μM Celecoxib): 3816
SR (stabilization ratio) [1, 4]: 8.65
Median PE ([1]; NIH3T3, 10 μM Valdecoxib): 3588
SR (stabilization ratio) [1, 5]: 7.93
Median FITC / Median PE [1, 6]: 499
Fold change [1, 7]: 1.85
Median FITC / Median PE [1, 8]: 704
Fold change [1, 9]: 3.58
Median FITC / Median PE [1, 10]: 1360
Fold change [1, 11]: 9.46
Median FITC / Median PE [1, 12]: 3594
Fold change [1, 13]: 17.49
Median FITC / Median PE [1, 14]: 6645
Fold change [1, 15]: 24.46
Median FITC / Median PE [1, 16]: 9295
Fold change [1, 17]: 28.68
Median FITC / Median PE [1, 18]: 10900
Med (median fluorescence intensity) [1, 19]: 531
SR (stabilization ratio) [1, 19]: 1
Med (median fluorescence intensity) [1, 20]: 711
SR (stabilization ratio) [1, 20]: 1.34
Med (median fluorescence intensity) [1, 21]: 661
SR (stabilization ratio) [1, 21]: 1.24
Med (median fluorescence intensity) [1, 22]: 750
SR (stabilization ratio) [1, 22]: 1.41
Med (median fluorescence intensity) [1, 23]: 1207
SR (stabilization ratio) [1, 23]: 2.27
Med (median fluorescence intensity) [1, 24]: 2544
SR (stabilization ratio) [1, 24]: 4.79
Med (median fluorescence intensity) [1, 25]: 5227
SR (stabilization ratio) [1, 25]: 9.84
Med (median fluorescence intensity) [1, 26]: 7171
SR (stabilization ratio) [1, 26]: 13.5
Median PE ([1]; NIH3T3, DMSO): 441
SR (stabilization ratio) ([1]; NIH3T3, DMSO (reference)): 1
Median FITC / Median PE [1, 27]: 380
Med (median fluorescence intensity) [1, 28]: 531
SR (stabilization ratio) [1, 28]: 1
Med (median fluorescence intensity) [1, 29]: 580
SR (stabilization ratio) [1, 29]: 1.09
Med (median fluorescence intensity) [1, 30]: 623
SR (stabilization ratio) [1, 30]: 1.17
Med (median fluorescence intensity) [1, 31]: 655
SR (stabilization ratio) [1, 31]: 1.23
Med (median fluorescence intensity) [1, 32]: 873
SR (stabilization ratio) [1, 32]: 1.64
Med (median fluorescence intensity) [1, 33]: 1572
SR (stabilization ratio) [1, 33]: 2.96
Med (median fluorescence intensity) [1, 34]: 3902
SR (stabilization ratio) [1, 34]: 7.35
Med (median fluorescence intensity) [1, 35]: 6245
SR (stabilization ratio) [1, 35]: 11.76
stabilization with varying doses of Valdecoxib or Celecoxib ([1]; 24 hours): dose dependent stabilization
GFP protein expression by immunoblot, Celecoxib or Valdecoxib [2]: stabilization of GFP with increasing ligand doses
Fold change [3, 36]: 1.31
Fold change [3, 37]: 1
